In ChEMBL document CHEMBL1121488, “Effects of phosphonium compounds on Schistosoma mansoni” (1980):

Columns and labels:
[1] = test system: Schistosoma mansoni; experiment: Probability that there was effect on carbachol response; type: functional
[2] = test system: Schistosoma mansoni; experiment: Effect on the carbachol-induced paralytic response on Schistosoma mansoni at 10E-4 (phosphonium treated); type: functional; parameters: unit not given here
[3] = test system: Schistosoma mansoni; experiment: Percentage reduction in carbachol response on Schistosoma mansoni; type: functional
[4] = test system: Schistosoma mansoni; experiment: Probability that the compound had no effect on carbachol response; NS = no significant; type: functional, organism-based

| Structure (SMILES) | Probability [1] | Activity [2] | Reduction [3] | Probability [4] |
| --- | --- | --- | --- | --- |
| Br.Br.CCCCCCNCCC[PH](c1ccccc1)(c1ccccc1)c1ccccc1 | <0.0001 | -35.4 | 62.4% | – |
| Br.Br.CCCCNCCC[PH](c1ccccc1)(c1ccccc1)c1ccccc1 | <0.001 | -70.3 | 22.8% | – |
| [Br-].[Br-].c1ccc([P+](CCC[P+](c2ccccc2)(c2ccccc2)c2ccccc2)(c2ccccc2)c2ccccc2)cc1 | <0.001 | 2 | 102.6% | – |
| N#CCCC[P+](c1ccccc1)(c1ccccc1)c1ccccc1.[Br-] | – | -73 | 10.3% | No significance |
| CC[P+](c1ccccc1)(c1ccccc1)c1ccccc1.[Br-] [ETHYLTRIPHENYLPHOSPHONIUM BROMIDE] | <0.02 | -63.8 | 27% | – |
| Br.Br.CCCNCCC[PH](c1ccccc1)(c1ccccc1)c1ccccc1 | – | -71.7 | 0.97% | No significance |
| Br.Br.NCC[PH](c1ccccc1)(c1ccccc1)c1ccccc1 | – | -67.8 | 14.6% | No significance |
| Br.Br.CCNCCC[PH](c1ccccc1)(c1ccccc1)c1ccccc1 | <0.05 | -72 | 18.6% | – |
| BrCCC[P+](c1ccccc1)(c1ccccc1)c1ccccc1.[Br-] | <0.01 | -35 | 45.3% | – |
| Br.Br.CCCCCNCCC[PH](c1ccccc1)(c1ccccc1)c1ccccc1 | <0.001 | -31.8 | 58.2% | – |
| [Br-].c1ccc(C[P+](c2ccccc2)(c2ccccc2)c2ccccc2)cc1 | <0.05 | -55.1 | 27.1% | – |
| [Br-].[Br-].c1ccc([P+](CC[P+](c2ccccc2)(c2ccccc2)c2ccccc2)(c2ccccc2)c2ccccc2)cc1 | <0.001 | 13.3 | 117.8% | – |
| [Br-].[Br-].c1ccc([P+](CCCCC[P+](c2ccccc2)(c2ccccc2)c2ccccc2)(c2ccccc2)c2ccccc2)cc1 | <0.001 | -19.7 | 76.1% | – |
| [Br-].[Br-].c1ccc([P+](CCCCCC[P+](c2ccccc2)(c2ccccc2)c2ccccc2)(c2ccccc2)c2ccccc2)cc1 | <0.001 | -4.6 | 94.3% | – |
| Br.Br.NCCCCC[PH](c1ccccc1)(c1ccccc1)c1ccccc1 | <0.05 | -81.3 | 13.1% | – |
